Consider 94 compounds from ChEMBL document CHEMBL3507680, “University of Dundee, Gates Library screen for HepG2 cell viability”.

Molecules are shown by their SMILES.

The series can be described thus: Human HepG2 cell viability assay in 384 well format. The note with it: HepG2 cells, read-out: Inhibition. It is filed as toxicity, cell-based. More on the design: dose 125 nL, time 70.5 hour; concentration not given beside the values.

`Cn1cc(CN(Cc2ccccc2)CC(O)c2cccs2)cn1` (centres undefined): the cytotoxicity at 70.5 h is -8.92%. As to `OC(CN(Cc1ccccc1)Cc1ccncc1)c1cccs1` (centres undefined), the cytotoxicity at 70.5 h is 21.6%. As to `Cn1ccnc1CNC1CCCN(Cc2noc(C3CC3)n2)C1` (centres undefined), the cytotoxicity at 70.5 h was -3.59%.

Consider `O=C(c1cccnc1-n1cncn1)N1CCc2ccccc2C1`, for which the cytotoxicity at 70.5 h was -10.4%. As to `CN(CC(=O)N1CCN(c2ncccn2)CC1)c1ccc(Cl)cn1`, the cytotoxicity at 70.5 h is -7.47%.

With `CCOc1ccc(C(C)NC(=O)N2CCC(C(N)=O)CC2)cc1OC` (centres undefined), the cytotoxicity at 70.5 h is -10.4%.

As for `Cc1nn(C)c(C)c1NC(=O)CN1CCc2c(nc(C(C)C)n2C)C1`, the cytotoxicity at 70.5 h was -10.5%. Consider `COc1ccc(C(=O)NS(=O)(=O)c2cncc(Br)c2)cc1OC`, for which the cytotoxicity at 70.5 h is -3.31%.

On to `CCC(O)CN1CCN(C(=O)c2ccnc(N(C)C)c2)CC1` (centres undefined), for which the cytotoxicity at 70.5 h was -11.3%. As for `Cn1cccc1C(=O)N1CCC2(CC1)CN(c1ccccc1)C(=O)CO2`, the cytotoxicity at 70.5 h is -14.1%. As to `Cn1cc(N2CC3(CCN(C(=O)c4cccn4C)CC3)OCC2=O)cn1`, the cytotoxicity at 70.5 h is -12.8%. Regarding `COCCC1COC2(CCN(C(=O)c3ccccc3)CC2)C1` (centres undefined), the cytotoxicity at 70.5 h was -7.59%. To `O=C(Cc1ccsc1)N1CCc2ncc(Cn3cccn3)n2CC1` belongs -13.8%; to `O=C(c1cccs1)N1CCc2ncc(Cn3cncn3)n2CC1`, -13.5%; to `Cc1cc(C(=O)N2CCC[C@]3(C[C@@H](OCC4CC4)CO3)C2)no1`, -11.6%. In the case of `Cc1cc(C(=O)N2CCC[C@]3(C[C@H](OCC4CC4)CO3)C2)no1`, the cytotoxicity at 70.5 h was -0.0994%.

Turning to `Cc1nc(NCC2CC2)nc2c1COCC21CCN(CC(=O)N(C)C)C1` (centres undefined), the cytotoxicity at 70.5 h was -14.8%. Next, `Cc1cccc(C(=O)N2CCn3cc(CN4CCCCC4)nc3C2)n1`: -10.3%; `O=C(c1cocn1)N1CCC[C@]2(C[C@@H](OCC3CC3)CO2)C1`: -7.29%; `C[C@H]1CN(C(=O)N(C)C)C[C@@]12CCN(c1ccsc1)C2=O`: -8.12%.

In the case of `CN(Cc1ccncc1)C1CC2(CCN(Cc3ccccn3)CC2)C1`, the cytotoxicity at 70.5 h is -6.76%. Take `CCOCC(=O)N1CC[C@@H]2O[C@@H](C)C[C@H]2C1`: the cytotoxicity at 70.5 h is -11.3%. Next, `O=C(c1cccs1)N1CCC2(CC1)CN(c1cncnc1)C(=O)CO2`: -12.3%; `CN(C)[C@@H]1CCN(C(=O)c2ccccn2)[C@H]1Cc1ccncc1`: -13%. In the case of `CCOCC(=O)N1CC[C@H]2O[C@@H](C)C[C@H]2C1`, the cytotoxicity at 70.5 h is -12.8%. Regarding `COc1cccc(C(=O)N2CCOC3(CCCN(C(C)=O)C3)C2)c1` (centres undefined), the cytotoxicity at 70.5 h was -16.1%. Next, `COCCC1COC2(CCN(C(=O)c3ccsc3)CC2)C1` (centres undefined): -12.7%; `COc1ccccc1C(=O)N1CCOC2(CCCN(C(C)=O)C2)C1` (centres undefined): -12.3%. As to `CCO[C@@H]1CCN(C(=O)c2cnc(C)cn2)[C@@H]1Cc1cnn(C)c1`, the cytotoxicity at 70.5 h is -11.6%.

With `COCCO[C@H]1CCN(C(=O)c2ccsc2)[C@H]1Cc1ccncc1`, the cytotoxicity at 70.5 h was -9.1%. Regarding `Cn1cc(C[C@H]2[C@@H](O)CCN2C(=O)c2ccc[nH]2)cn1`, the cytotoxicity at 70.5 h is -10.8%. In the case of `COCCO[C@H]1CCN(C(=O)c2cnoc2C)[C@H]1Cc1cnn(C)c1`, the cytotoxicity at 70.5 h was -5.22%. Regarding `Cc1ncnc2c1CCN(C(=O)c1cccn1C)CC2`, the cytotoxicity at 70.5 h was -5.38%.

`Cn1cccc1C(=O)N1CCc2ncnc(N3CCOCC3)c2CC1`: the cytotoxicity at 70.5 h was -9.14%.

As for `Cc1cc(CN2CC[C@H]3C(=O)N(c4cccnc4)CCO[C@H]3C2)no1`, the cytotoxicity at 70.5 h was -4.94%.

Consider `COCC1CN(C(=O)Cc2ccsc2)Cc2c1cnn2C` (centres undefined), for which the cytotoxicity at 70.5 h is 25.8%. To `O=C(c1ccoc1)N1CCn2cnc(COCC3CC3)c2C1` belongs 4.58%; to `CNC(=O)[C@@]12CCO[C@@H]1CCN(S(=O)(=O)c1cc(C)cc(C)c1)C2`, -13.2%; to `O=C(c1cccs1)N1CC[C@H]2[C@@H]1CCC(=O)N2c1cccnc1`, -11.5%.

With `Cn1cc(C[C@H]2[C@H](N3CCOCC3)CCN2C(=O)c2ccoc2)cn1`, the cytotoxicity at 70.5 h is -16.3%. Next, `O=C(c1cnccn1)N1CCc2ncnc(C3CCOC3)c2CC1` (centres undefined): -9.35%; `O=C(c1ccco1)N1CC[C@@H](N2CCOCC2)[C@@H]1Cc1ccccc1`: -7.17%.

As for `CNC(=O)[C@@]12CCO[C@@H]1CCN(S(=O)(=O)c1ccccc1C)C2`, the cytotoxicity at 70.5 h was -10.5%. For `CNC(=O)[C@@]12CCO[C@@H]1CCN(S(=O)(=O)c1ccccc1)C2`, the cytotoxicity at 70.5 h is -6.28%. Turning to `Cn1cc(CN2CCCC3(CCN(c4cccnc4)C3=O)C2)cn1` (centres undefined), the cytotoxicity at 70.5 h was found to be 20%. For the compound `CCOCC1CN(C(=O)c2ccco2)Cc2cnn(CC)c21` (centres undefined), the cytotoxicity at 70.5 h was determined as 12.3%. For the compound `Cc1noc([C@@H]2CCO[C@@H]3CCN(Cc4nccs4)C[C@@H]32)n1`, the cytotoxicity at 70.5 h turned out to be 9.78%. For `CCOCC1CN(C(=O)N2CCCC2)Cc2cnn(CC)c21` (centres undefined), the cytotoxicity at 70.5 h is -4.21%. Take `Cc1nnc(SCC(=O)N2CCc3[nH]nc(C4CCC4)c3C2)o1`: the cytotoxicity at 70.5 h stood at 8.24%.

Turning to `COCCN(C)C(C(=O)O)c1ccc(F)c(C)c1` (centres undefined), the cytotoxicity at 70.5 h is -2.89%. In the case of `CCC(=O)N1CCCC(C(=O)NCc2noc(Cc3ccccc3)n2)C1` (centres undefined), the cytotoxicity at 70.5 h was -12.1%. Next, `CC(C)N(CCO)C(=O)c1cc(COc2ccc3c(c2)CCCC3)on1`: -10.1%; `CCCNc1ncc(C2CC(=O)NCc3nc4ccccn4c32)cn1` (centres undefined): -8.46%. As for `Cc1cc(C)cc(C(C(=O)O)N(C)CCCN2CCOCC2)c1` (centres undefined), the cytotoxicity at 70.5 h amounted to 8.9%. Next, `CC(NC(=O)C1CCN(C(=O)C2CC2)CC1)c1nncn1C(C)C` (centres undefined): -4.92%; `CC(C)(C)c1cc(CN2C[C@H]3CC[C@@H]2CN(Cc2ccccn2)C3)n[nH]1`: -5.84%. As for `CCc1ccc2nc(C)cc(C(=O)N[C@@H]3CNC[C@H]3O)c2c1`, the cytotoxicity at 70.5 h turned out to be 25.1%. Turning to `CCn1cc(CN2CCCC(c3[nH]ncc3-c3ccc(C)cc3)C2)cn1` (centres undefined), the cytotoxicity at 70.5 h is -16.8%. Next, `O=C(c1cc(-c2ccco2)nc2c(Cl)cccc12)N1CCS(=O)(=O)CC1`: -11.9%; `CNC(=O)CNCC1(O)CCCN(Cc2ccc(F)c(F)c2)C1=O` (centres undefined): 29%.

As for `CC(C)CCN1CC2(CCN(C(=O)C3(C)CC3)CC2)OC1=O`, the cytotoxicity at 70.5 h was -0.562%. For the compound `O=C(C1COc2ccccc2O1)N1Cc2cnn(CCO)c2C1` (centres undefined), the cytotoxicity at 70.5 h is -3.6%. As for `CS(=O)(=O)CC1CCCN(c2ncnc3c2Cc2ccccc2OC3)C1` (centres undefined), the cytotoxicity at 70.5 h was -9.52%. To `CC(C)Cn1cncc1CNC1CCSC1` (centres undefined) belongs 21.1%.

Take `O=C(c1ccc[nH]1)N1CCn2cc(Cn3cccn3)nc2C1`: the cytotoxicity at 70.5 h is -8.4%. Take `Cc1cccc(C(=O)N2CCC[C@]3(C[C@@H](OCC4CC4)CO3)C2)n1`: the cytotoxicity at 70.5 h is -13.9%. To `O=C(CC1CC1)N1CCc2ncc(Cn3cncn3)n2CC1` belongs -14.1%; to `COCCC1COC2(CCN(C(=O)c3cccnc3)CC2)C1` (centres undefined), -13%.

On to `CC(C)CCN1C2(CCN(Cc3nccs3)C2)c2ccccc2S1(=O)=O` (centres undefined), for which the cytotoxicity at 70.5 h was -11.4%.

In the case of `COCCO[C@H]1CCN(C(=O)c2ccno2)[C@H]1Cc1ccncc1`, the cytotoxicity at 70.5 h was -11.9%. On to `Cc1ccccc1C(=O)N1Cc2c(Cn3ccnc3)nn(C)c2C1`, for which the cytotoxicity at 70.5 h was -9.48%. Next, `O=C(C1CCOC1)N1CCC2(CC1)CN(c1ncccn1)CCO2` (centres undefined): 22.2%; `Cc1cc(CN2CC[C@H]3C(=O)N(c4ccsc4)CCO[C@H]3C2)no1`: -9.15%; `c1cc(CN2CCCn3cnc(COCC4CC4)c3C2)co1`: -8.86%.

As for `COc1cccc(N2CC3(CCN(Cc4nccn4C)C3)CC2=O)c1` (centres undefined), the cytotoxicity at 70.5 h is -16.5%. Next, `CCN(CC)c1ncnc2c1CCN(CC1CCOCC1)CC2`: -16.3%; `O=C(C1CC=CC1)N1C[C@@H]2CN(Cc3ccsc3)CCO[C@@H]2C1`: -15.4%. Turning to `CN(C)[C@@H]1CCN(C(=O)c2ccco2)[C@H]1Cc1cnn(C)c1`, the cytotoxicity at 70.5 h is -12.7%. In the case of `O=C(c1ccncc1)N1CCc2ncnc(C3CC3)c2CC1`, the cytotoxicity at 70.5 h was -14.3%. For the compound `Cn1cc(N2CC3(CCN(Cc4nccn4C)C3)CC2=O)cn1` (centres undefined), the cytotoxicity at 70.5 h was -12.4%. As for `CN(C)c1ncnc2c1CCN(CC1CCOCC1)CC2`, the cytotoxicity at 70.5 h is -15%. Regarding `O=C(CCc1ccccc1)N1C[C@@H]2CN(Cc3ccoc3)CCO[C@@H]2C1`, the cytotoxicity at 70.5 h is -11.8%. To `O=S1(=O)c2ccccc2C2(CCN(Cc3cccnc3)C2)N1CC1CC1` (centres undefined) belongs -11.1%; to `CN(Cc1ccco1)[C@@H]1CN(Cc2cnn(C)c2)[C@@H]2CCCO[C@H]12`, -12%; to `CN(Cc1ccco1)[C@@H]1CN(CC2CCOCC2)[C@@H]2CCCO[C@H]12`, -11.5%. `O=C(c1ccncc1)N1CCCn2c(CN3CCCC3)nnc2C1`: the cytotoxicity at 70.5 h was -9.38%. To `Cc1ccc(N2CCO[C@H]3CN(Cc4cc(C)on4)CC[C@H]3C2=O)cn1` belongs -9.06%; to `COCCN1CCN(Cc2c(C)noc2C)Cc2cccnc21`, -4.72%; to `O=C(NCc1cccnc1)[C@@H]1C[C@H]2[C@H](CCN2c2ncccn2)O1`, -3%.

With `O=C(NCc1cccnc1)[C@@H]1C[C@H]2[C@H](CCN2c2ncc(F)cn2)O1`, the cytotoxicity at 70.5 h was -4.83%.

In the case of `O=C(NCc1cccnc1)[C@@H]1C[C@@H]2CCN(c3ncc(F)cn3)C[C@@H]2O1`, the cytotoxicity at 70.5 h was -12.2%. As for `O=C1CCC2(CCCN(Cc3nccs3)C2)N1CC1CC1` (centres undefined), the cytotoxicity at 70.5 h was 10.7%.

In the case of `O=C(NCc1cccnc1)[C@@H]1CC[C@@H]2[C@@H](CCN2c2ncccn2)O1`, the cytotoxicity at 70.5 h is 15.1%. With `Cc1ccc(N2CCO[C@H]3CN(Cc4cccs4)C[C@H]32)nn1`, the cytotoxicity at 70.5 h came out at 8.57%.
